Results as given in patent publication EP0565593B1, “REDUCING PESTICIDAL INTERACTIONS IN CROPS” (priority 1990, dated 1992).

Test system: Velvetleaf (VELE)
Assay: whole plant or invertebrate
Type: in vivo, Abutilon theophrasti
Details: PPI

Compound: CC1(C)OC(c2ccco2)CN1C(=O)C(Cl)Cl (centres unmarked) [compound 1]
- % Inhibition VELE ([…], 13 days after PPI (Table 31)): 85%
- % Inhibition VELE (antidote 4.48 Kg/Ha + Herb. […], 13 days after planting): 90%
